The values below are quoted from earlier work in PMC8158804 (ACS Omega, 2021).

For the first series the following is noted: critical aggregation concentration, fluorimetry, pure water.
Turning to AcGAAVILRRNH2, the “CAC (−log M)” value is 1.52 −log M.
For AcGVPGVGKKNH2 [KK8], the “CAC (−log M)” value is 2.10 −log M.
As to AcIIIGVPGVGKKNH2 [IKK11], the “CAC (−log M)” value is 2.66 −log M.
For the substance AcIIIGVPGVGVPGVGKKNH2 [IKK16], the “CAC (−log M)” value is on record as 3.13 −log M.
AcIIIKGVPGVGKNH2 [IK-K11]: the “CAC (−log M)” value is listed as 2.58 −log M.
With AcIIIKGVPGVGVPGVGKNH2 [IK-K16], the “CAC (−log M)” value was 3.03 −log M.
In the case of AcKGVPGVGKNH2 [K-K8], the “CAC (−log M)” value is on record as 2.10 −log M.
As to RFRF [[RF]2], the “CAC (−log M)” value was 4.40 −log M.
RFRFRF [[RF]3]: the “CAC (−log M)” value is 2.64 −log M.
Turning to RFRFRFRF [[RF]4], the “CAC (−log M)” value was 3.52 −log M.
As to RFRFRFRFRF [[RF]5], the “CAC (−log M)” value is listed as 4.70 −log M.
Turning to V6K2GRGDS, the “CAC (−log M)” value is on record as 4.83 −log M.

The conditions of another series: critical aggregation concentration, conductivity, pure water.
As to Ac-GAVILEE, the “CAC (−log M)” value is on record as 3.15 −log M.
For the substance Ac-GAVILEE-NH2, the “CAC (−log M)” value is listed as 3.10 −log M.
In the case of AcLIIKNH2 [LI2K], the “CAC (−log M)” value was 2.99 −log M.
